“Also recorded” adds a separate entry of the source. Read-outs that look alike come from different tables or passages of the source. Bridge positions count the residues as written; N and C are the ends. Peptide text beside a SMILES is read from it.
Tests used:
[1] = cited from earlier work
Description: Upon examining the biochemical properties of synthetic IDRs, the structural flexibility was noted. For example, the bovine bactenecin linear derivative 1018 adopts various folds in different media, relative to the natural peptide, to adapt to different functions. […] It can be exp ...

[2] = test system: anthrax lethal factor (LF); settings: cited from earlier work
[3] = test system: intestinal epithelial cells; settings: cited from earlier work
Description: (§1) Human defensins are also noted for their immunoregulatory properties. […] Additionally, some defensins are able to suppress the pro-inflammatory effect of bacterial lipopolysaccharide (LPS). For example, H ...

CD4^+T cells = settings: cited from earlier work
Description: as §1

E. coli ML35 cells = experiment: Membrane depolarization, flow cytometry DiBAC4(3); settings: 6.25 μg/mL; for DP (depolarized cells): 37 °C, 1 h, DiBAC4(3) flow cytometry, representative scatter plot
[4] = Circular dichroism (CD) spectroscopy; format: physicochemical; settings: 27 °C; for CD secondary structure in the presence of LPS: 100 μg/mL peptide, 100 μg/mL LPS; for CD secondary structure in SDS micelles: 100 μg/mL, 20 mM SDS
Method: The conformational properties of the peptides were analyzed using an Applied Photophysics Chirascan instrument at 27 °C. A cell with a 1-mm path length was utilized. The CD spectra were obtained from 190–280 nm at 1 nm intervals. The time-per-point was 0.5 s, and the scanning time was approximately 73 s. Peptides (100 μg/mL, 250 μL) prepared in sterile water were examined in the presence of 20 mM sodium dodecyl sulfate (SDS) and 100 μg/mL LPS. Before scanning, peptides were incubated with SDS and LPS at room temperature for 1 h. The data obtained from three independent scans were averaged and smoothed by Pro-Data Chirascan software (version 4.1).

HIV gp-120 = settings: cited from earlier work
[5] = Biolayer interferometry (BLI), binding to lipid A; settings: for Kd / Koff (dissociation rate constant) / Kon (association rate constant): BLI, 1:1 fit
Method: The recruitment of peptides to lipid A (Sigma L5399) was determined using Forte Bio’s “Octet Red 96” BLI (Pall Life Sciences, US). The amine-reactive second-generation (AR2G) biosensor was activated using 20 mM 1-ethyl-3-[3-dimethylaminopropy] carbodiimide hydrochloride (EDC, Sigma E1769) and 10 mM sulfo-N-hydroxysulfosuccinimide (s-NHS, Sigma 56485). Lipid A was immobilized on biosensors at the concentration of 20 μg/mL until the binding curves reached the plateau. Ethanolamine (1 M, pH 8.5) was used to quench the immobilization. Peptides were prepared in the running buffer (5 mM sodium phosphate buffer, pH 7.4), with concentrations of 200, 400, 600, 800, 1000, and 1200 nM, respectively. Association and disassociation, 5 min for each, were carried out at a shaking speed of 600 rpm. Biosensors were regenerated by 0.1 M Glycine-HCl buffer (pH 2.0). […] The binding thicknesses were processed using Fortebio Data Analysis 7.0 software, in which the methods for y-axis alignment, inter-step correction, and Savitzky-Golay filtering were specified. The equilibrium dissociation constant (KD), calculated as the ratio of the dissociation rate constant (Koff) to the association rate constant (Kon), was generated by a 1:1 fitting model. This experiment was repeated three times.
^a The binding kinetics between peptides and bacterial lipid A were determined with a biolayer interferometry (BLI). Lipid A was immobilized on AR2G biosensors at the concentration of 20 μg/mL until the binding curves reached the plateau. Peptides were prepared in the running buffer (5 mM sodium phosphate buffer, pH 7.4), with concentrations of 200, 400, 600, 800, 1000, and 1200 nM, respectively. Association and disassociation, 5 min for each, were carried out at a shaking speed of 600 rpm. The bindings were processed using Fortebio Data Analysis 7.0 software, which specifies the methods for y-axis alignment, inter-step correction, reference subtraction, and Savitzky-Golay filtering. The experiment was repeated three times.
^b Kon, the association rate constant; Koff, the dissociation rate constant; KD, the equilibrium dissociation constant; R^2, the fitting correlation coefficient. These parameters were generated by a 1:1 fitting model. KD is calculated as the ratio of Koff to Kon. […]

human thioredoxin (Trx) = experiment: HD5OX reduction by thioredoxin in vitro, LC-MS; format: biochemical; settings: 30 μM HD5OX, 15 μM human Trx, 500 nM rat liver TrxR, 1 mM NADPH, 2 mM EDTA, pH 7.0, room temperature, 1 h
Method: (§2) A mixture of 30 μM HD5OX, 15 μM human thioredoxin (Trx, Prospec PRO569), 500 nM rat liver thioredoxin reductase (TrxR, Sigma T9698), 1 mM NADPH (Sigma N5130), and 2 mM EDTA was incubated in 100 mM sodium phosphate buffer (pH 7.0) at room temperature for 1 h. The reaction was quenched by adding 6% trifluoroacetic acid (TFA). The solution was then centrifuged (10,000 g × 10 min) at 4 °C and analyzed with an Agilent 6410 liquid chromatography-mass spectrometry (LC-MS) instrument using a linear gradient of 5–45% acetonitrile that contained 0.1% TFA.

bacteria = settings: among the α defensins; cited from earlier work
Description: Oxidized human defensin 5 (HD5OX), a 32-residue α defensin, is stored in the secretory granules of Paneth cells in the small intestine as a propeptide (E20-R94) and is processed by anionic and/or meso isoforms of trypsin during secretion or shortly thereafter at a cleavage site between R62 and A63[6]. […] We have previously prepared bioactive HD5OX using Pichia pastoris and design ... || HD5OX is an endogenous bactericidal agent.

[6] = Hydrophobicity of the Trx reduction product (LC-MS); format: physicochemical; settings: linear gradient of 5–45% acetonitrile with 0.1% TFA, vs HD5OX
Method: as §2

[7] = test system: Enterococcus faecalis (ATCC 29212); experiment: virtual colony count assay, E. faecalis; settings: HD5OX vs HD5RED
[8] = test system: E. coli ML35 inner membrane; experiment: Inner membrane permeabilization (ONPG); format: cell-based; settings: 6.25 and 12.5 μg/mL, 37 °C, 2 h, absorbance 405 nm, vs HD5OX
Method: The production of 2-nitrophenol (ONP), a marker of inner membrane penetration, was determined by measuring the absorbance at 405 nm.

[9] = AR2G biosensor, 5 mM sodium phosphate buffer pH 7.4, 200-1200 nM, mean ± SD from three independent assays, read-out: KD (equilibrium dissociation constant) binding to lipid A
[10] = lipid A, repeat 1th, read-out: KD
[11] = lipid A, repeat 2th, read-out: KD
[12] = lipid A, repeat 3th, read-out: KD

SMILES | DP (depolarized cells) (E. coli ML35 cells) [%] | CD secondary structure in the presence of LPS [4] | CD secondary structure in SDS micelles [4] | Kd [5, 9] [µM] | Koff (dissociation rate constant) ([5]; lipid A, repeat 1th) [s⁻¹] | Kon (association rate constant) ([5]; lipid A, repeat 1th) [M⁻¹ s⁻¹] | Kd [5, 10] [µM] | Koff (dissociation rate constant) ([5]; lipid A, repeat 2th) [s⁻¹] | Kon (association rate constant) ([5]; lipid A, repeat 2th) [M⁻¹ s⁻¹] | Kd [5, 11] [µM] | Koff (dissociation rate constant) ([5]; lipid A, repeat 3th) [s⁻¹] | Kon (association rate constant) ([5]; lipid A, repeat 3th) [M⁻¹ s⁻¹] | Kd [5, 12] [µM] | other results
CC[C@H](C)[C@@H]1NC(=O)[C@H](CCC(=O)O)NC(=O)[C@@H]2CSSC[C@@H]3NC(=O)[C@H](Cc4ccc(O)cc4)NC(=O)[C@@H](NC(=O)[C@@H](NC(=O)[C@H](C)N)[C@@H](C)O)CSSC[C@@H](C(=O)N[C@@H](CCCNC(=N)N)C(=O)O)NC(=O)[C@H](CSSC[C@H](NC(=O)[C@H](CCCNC(=N)N)NC(=O)CNC(=O)[C@H]([C@@H](C)O)NC(=O)[C@H](CCCNC(=N)N)NC3=O)C(=O)N[C@@H](C)C(=O)N[C@@H]([C@@H](C)O)C(=O)N[C@@H](CCCNC(=N)N)C(=O)N[C@@H](CCC(=O)O)C(=O)N[C@@H](CO)C(=O)N[C@@H](CC(C)C)C(=O)N[C@@H](CO)C(=O)NCC(=O)N[C@@H](C(C)C)C(=O)N2)NC(=O)[C@H](CC(C)C)NC(=O)[C@H](CCCNC(=N)N)NC(=O)[C@H](Cc2ccc(O)cc2)NC(=O)[C@H](CC(C)C)NC(=O)[C@H](CCCNC(=N)N)NC(=O)CNC(=O)[C@H](CO)NC1=O [HD5OX, Oxidized human defensin 5] (H-ATCYCRTGRCATRESLSGVCEISGRLYRLCCR-OH; disulfide 3-31, 5-20, 10-30; N-terminus and C-terminus assumed) | 31.8 | slightly red-shifted | maintained the β-sheet structures | 0.075 ± 0.024 | 0.000324 | 6320 | 0.0513 | 0.000536 | 5410 | 0.0991 | 0.000509 | 6830 | 0.0745 | LPS binding [1]: can bind LPS; binding and inhibition of anthrax lethal factor [2]: efficiently bind and inhibit anthrax lethal factor; IL-8 production [3]: can induce the production of IL-8; IL-2 production (CD4^+T cells): can induce the production of IL-8 and IL-2; binding and inhibition of HIV gp-120 (HIV gp-120): efficiently bind and inhibit; reduction by Trx (human thioredoxin (Trx)): Trx catalyzed the reduction of HD5OX in vitro; antibacterial activity (bacteria): widest spectrum of antibacterial activity among the α defensins
CC[C@H](C)[C@H](NC(=O)[C@H](CCC(=O)O)NC(=O)[C@H](CS)NC(=O)[C@@H](NC(=O)CNC(=O)[C@H](CO)NC(=O)[C@H](CC(C)C)NC(=O)[C@H](CO)NC(=O)[C@H](CCC(=O)O)NC(=O)[C@H](CCCNC(=N)N)NC(=O)[C@@H](NC(=O)[C@H](C)NC(=O)[C@H](CS)NC(=O)[C@H](CCCNC(=N)N)NC(=O)CNC(=O)[C@@H](NC(=O)[C@H](CCCNC(=N)N)NC(=O)[C@H](CS)NC(=O)[C@H](Cc1ccc(O)cc1)NC(=O)[C@H](CS)NC(=O)[C@@H](NC(=O)[C@H](C)N)[C@@H](C)O)[C@@H](C)O)[C@@H](C)O)C(C)C)C(=O)N[C@@H](CO)C(=O)NCC(=O)N[C@@H](CCCNC(=N)N)C(=O)N[C@@H](CC(C)C)C(=O)N[C@@H](Cc1ccc(O)cc1)C(=O)N[C@@H](CCCNC(=N)N)C(=O)N[C@@H](CC(C)C)C(=O)N[C@@H](CS)C(=O)N[C@@H](CS)C(=O)N[C@@H](CCCNC(=N)N)C(=O)O [HD5RED] (H-ATCYCRTGRCATRESLSGVCEISGRLYRLCCR-OH) | 2.04 | adopted a different conformation with two negative ellipticities at 217 nm and 206 nm | transformed into a peptide containing α-helical structures | 0.14 ± 0.03 | 0.000389 | 2140 | 0.182 | 0.000337 | 2570 | 0.131 | 0.000264 | 2250 | 0.117 | hydrophobicity of product [6]: increased hydrophobicity; efficiency against Gram-positive E. faecalis, relative [7]: less than HD5OX; membrane depolarization, relative (E. coli ML35 cells; HD5RED vs HD5OX, mean of three independent experiments): less efficiency of HD5RED in inducing membrane depolarization relative to HD5OX; also recorded: significantly lower than that of HD5OX; CD secondary structure in aqueous ([4]; 100 μg/mL in sterile water, vs HD5OX): less effective in forming rigid β-sheet structures; recruitment to lipid A ([5]; 1000 nM, 5 mM sodium phosphate buffer, HD5RED vs HD5OX): fewer HD5RED than HD5OX molecules were recruited to the lipid A; fold KD relative to HD5OX ([5]; lipid A, higher than HD5OX): 1.9 -fold; inner membrane disintegration [8]: attenuated potency for disintegrating the bacterial inner membrane

From article PMC4785407, “Reduction Impairs the Antibacterial Activity but Benefits the LPS Neutralization Ability of Human Enteric Defensin 5” (Scientific Reports, 2016)
